From PMC8953592, “Mechanism of Action and Therapeutic Potential of the β-Hairpin Antimicrobial Peptide Capitellacin from the Marine Polychaeta Capitella teleta” (Marine Drugs, 2022)
Positions of bridges follow the written chain, without caps; N, C: chain ends. Residues, ends and D or L forms follow the SMILES beside them.

Tests used:
Gram-positive bacteria = conditions: Gram-positive test strains
Gram-negative bacteria = conditions: Gram-negative test strains
E. coli ML-35p [1] = conditions: 24 h
[2] = tested on: Staphylococcus aureus 209P; conditions: 24 h
[3] = tested on: Micrococcus luteus B-1314; conditions: B-1314, 24 h
E. coli CI 214 = conditions: CI 214, 24 h
E. coli ATTC 25922 = conditions: ATTC 25922, 24 h
Bacillus subtilis B-886 = conditions: B-886, 24 h
K. pneumonia ATCC 700603 = conditions: ATCC 700603, 24 h
A. baumanii CI 2675 = conditions: 24 h
P. aeruginosa PAO1 = conditions: PAO1, 24 h
E. cloacae CI 4172 = conditions: CI 4172, 24 h
E. coli CI 3600 = conditions: CI 3600, 24 h
human red blood cells = assay: Hemolytic assay (hemoglobin release); conditions: human erythrocytes
Procedure: To examine the ability of the peptides to permeabilize cytoplasmic membranes of bacterial and mammalian cells, the ONPG test and hemolysis assay were used, respectively. […] The hemolytic activity of AMPs against a suspension of human erythrocytes was determined by the method of double serial dilution in buffered saline followed by incubation for 1.5 h (Figure 2A). […] Next, we used ONPG assay to estimate E. coli inner membrane permeabilization by the peptides.
The hemolytic activity of compounds was performed using human red blood cells (hRBS), in accordance with the previously described approach. Briefly, hRBS of a healthy donor were separated from fresh blood and washed 3 times with ice-cold phosphate-buffered saline (PBS pH 7.4) and centrifuged at 500× g for 10 min; additionally, citrate buffer was added to prevent clotting. Further, supernatant was discarded and erythrocyte suspension was prepared in PBS as 8% (v/v) solution. The test was carried out in the 96-well plate, taking into account two-fold serial dilutions of studied peptides. […] Then the plate was centrifuged at 1000× g for 15 min for the precipitation of erythrocyte. The amount of hemoglobin release was determined by absorption spectroscopy at 405 nm. Triton X-100 (0.1% v/v) was used as a positive control, which underwent a complete lysis of erythrocytes, and PBS working solution was used as a negative control. The percentage hemolysis was calculated by the following formula: Hemolysis (%)=OD405(compound)− OD405 (zero lysis)/OD405(100 % lysis)− OD405 (zero lysis)×100%
The assays were conducted three times. The quantitative data were presented as an average means with standard deviations.

E. coli ML-35p [4] = tested on: E. coli ML-35p; design: method as in 2 sources, one per row (each row's own in cited_ref): ref 4, 19, 27 = [4]; PMID 33291782; doi:10.3390/md18120620; 4. Panteleev P.V. Tsarev A.V. Safronova V.N. Reznikova O.V. Bolosov I.A. Sychev S.V. Shenkarev Z.O. Ovchinnikova T.V. Structure Elucidation and Functional Studies of a Novel β-Hairpin Antimicrobial Pe || [19]; PMID 26814379; doi:10.1002/psc.2843; 19. Panteleev P.V. Bolosov I.A. Ovchinnikova T.V. Bioengineering and Functional Characterization of Arenicin Shortened Analogs with Enhanced Antibacterial Activity and Cell Selectivity J. Pept. Sci. 2 || [27]; PMID 25558400; doi:10.32607/20758251-2014-6-4-99-109; 27. Shamova O.V. Orlov D.S. Balandin S.V. Shramova E.I. Tsvetkova E.V. Panteleev P.V. Leonova Y.F. Tagaev A.A. Kokryakov V.N. Ovchinnikova T.V. Acipensins—Novel Antimicrobial Peptides from Leukocytes ||| ref 4 = [4]; PMID 33291782; doi:10.3390/md18120620; 4. Panteleev P.V. Tsarev A.V. Safronova V.N. Reznikova O.V. Bolosov I.A. Sychev S.V. Shenkarev Z.O. Ovchinnikova T.V. Structure Elucidation and Functional Studies of a Novel β-Hairpin Antimicrobial Pe; conditions: at a concentration several-fold higher than MIC; cited from earlier work
E. coli MDR CI 1057 = format: cell-based

With CC[C@H](C)[C@@H]1NC(=O)[C@@H](NC(=O)[C@@H](NC(=O)[C@H](CCCNC(=N)N)NC(=O)[C@@H]2CCCN2C(=O)[C@H](CO)NC(=O)[C@@H](N)CCCNC(=N)N)C(C)C)CSSC[C@@H](C(=O)N[C@@H](Cc2c[nH]c3ccccc23)C(=O)NCC(=O)O)NC(=O)[C@H](CCCNC(=N)N)NC(=O)[C@H](CCCNC(=N)N)NC(=O)[C@H](Cc2ccc(O)cc2)NC(=O)[C@@H]2CSSC[C@H](NC(=O)[C@H](C(C)C)NC(=O)[C@H](CCCNC(=N)N)NC1=O)C(=O)N[C@@H](CCCNC(=N)N)C(=O)N[C@@H](CC(N)=O)C(=O)NCC(=O)N[C@@H](C(C)C)C(=O)N2 [CT2] the “Geometric mean (GM) of the peptide MICs” value (Gram-positive bacteria) was 3.17 µM and the “Geometric mean (GM) of the peptide MICs” value (Gram-negative bacteria) was 0.46 µM.

For CC[C@H](C)[C@@H]1NC(=O)[C@@H](NC(=O)[C@@H](NC(=O)[C@H](CCCNC(=N)N)NC(=O)[C@@H]2CCCN2C(=O)[C@@H](N)CO)C(C)C)CSSC[C@@H](C(=O)N[C@@H](Cc2c[nH]c3ccccc23)C(=O)O)NC(=O)[C@H](CCCNC(=N)N)NC(=O)[C@H](CCCNC(=N)N)NC(=O)[C@H](Cc2ccc(O)cc2)NC(=O)[C@@H]2CSSC[C@H](NC(=O)[C@H](C(C)C)NC(=O)[C@H](CCCNC(=N)N)NC1=O)C(=O)N[C@@H](CCCNC(=N)N)C(=O)N[C@@H](CC(N)=O)C(=O)NCC(=O)N[C@@H](C(C)C)C(=O)N2 [CT3], the “Geometric mean (GM) of the peptide MICs” value (Gram-positive bacteria) was 10.08 µM and the “Geometric mean (GM) of the peptide MICs” value (Gram-negative bacteria) was 1.09 µM.

With CC[C@H](C)[C@@H]1NC(=O)[C@@H](NC(=O)[C@@H](NC(=O)[C@@H](N)CCCNC(=N)N)C(C)C)CSSC[C@@H](C(=O)N[C@@H](Cc2c[nH]c3ccccc23)C(=O)O)NC(=O)[C@H](CCCNC(=N)N)NC(=O)[C@H](CCCNC(=N)N)NC(=O)[C@H](Cc2ccc(O)cc2)NC(=O)[C@@H]2CSSC[C@H](NC(=O)[C@H](C(C)C)NC(=O)[C@H](CCCNC(=N)N)NC1=O)C(=O)N[C@@H](CCCNC(=N)N)C(=O)N[C@@H](CC(N)=O)C(=O)NCC(=O)N[C@@H](C(C)C)C(=O)N2 [CT4] the “Geometric mean (GM) of the peptide MICs” value (Gram-positive bacteria) was 6.35 µM and the “Geometric mean (GM) of the peptide MICs” value (Gram-negative bacteria) was 0.59 µM.

With CC[C@H](C)[C@@H]1NC(=O)[C@@H](NC(=O)[C@H](Cc2c[nH]c3ccccc23)NC(=O)[C@@H](N)CCCCN)CSSC[C@@H](C(=O)N[C@@H](CCCNC(=N)N)C(=O)O)NC(=O)[C@H](CCCNC(=N)N)NC(=O)[C@H](CCCNC(=N)N)NC(=O)[C@H](Cc2ccc(O)cc2)NC(=O)[C@@H]2CSSC[C@H](NC(=O)[C@H](C(C)C)NC(=O)[C@H](CCCNC(=N)N)NC1=O)C(=O)N[C@@H](CCCNC(=N)N)C(=O)N[C@@H](CC(N)=O)C(=O)NCC(=O)N[C@@H](C(C)C)C(=O)N2 [CT5] the “Minimum Inhibitory Concentration” value (E. coli ML-35p [1]) was 0.5 µM, the “Geometric mean (GM) of the peptide MICs” value (Gram-positive bacteria) was 12.7 µM and the “Geometric mean (GM) of the peptide MICs” value (Gram-negative bacteria) was 1.09 µM. The “Minimum Inhibitory Concentration” value [2] was 8 µM, the “Minimum Inhibitory Concentration” value [3] was 8 µM and the “Minimum Inhibitory Concentration” value (E. coli CI 214) was 0.5 µM. For the same compound, the “Minimum Inhibitory Concentration” value (E. coli ATTC 25922) was 0.5 µM, the “Minimum Inhibitory Concentration” value (Bacillus subtilis B-886) was 32 µM and the “Minimum Inhibitory Concentration” value (K. pneumonia ATCC 700603) was 4 µM. For the same compound, the “Minimum Inhibitory Concentration” value (A. baumanii CI 2675) was 0.5 µM, the “Minimum Inhibitory Concentration” value (P. aeruginosa PAO1) was 4 µM and the “Minimum Inhibitory Concentration” value (E. cloacae CI 4172) was 4 µM. For the same compound, the “Minimum Inhibitory Concentration” value (E. coli CI 3600) was 0.5 µM.

In the case of CC(C)[C@@H]1NC(=O)CNC(=O)[C@H](CC(N)=O)NC(=O)[C@H](CCCNC(=N)N)NC(=O)[C@@H]2CSSC[C@H](NC1=O)C(=O)N[C@@H](Cc1ccc(O)cc1)C(=O)N[C@@H](CCCNC(=N)N)C(=O)N[C@@H](CCCNC(=N)N)C(=O)N[C@H](C(=O)N[C@@H](Cc1c[nH]c3ccccc13)C(=O)O)CSSC[C@H](NC(=O)[C@@H](NC(=O)[C@@H](N)CCCNC(=N)N)C(C)C)C(=O)N[C@@H](Cc1ccccc1)C(=O)N[C@@H](CCCNC(=N)N)C(=O)N[C@@H](C(C)C)C(=O)N2 [CT6], the “Geometric mean (GM) of the peptide MICs” value (Gram-positive bacteria) is reported as 6.35 µM and the “Geometric mean (GM) of the peptide MICs” value (Gram-negative bacteria) is reported as 0.55 µM.

For CC[C@H](C)[C@@H]1NC(=O)[C@@H](NC(=O)[C@@H](NC(=O)[C@@H](N)CCCNC(=N)N)C(C)C)CSSC[C@@H](C(=O)N[C@@H](Cc2c[nH]c3ccccc23)C(=O)O)NC(=O)[C@H](CCCNC(=N)N)NC(=O)[C@H](CCCNC(=N)N)NC(=O)[C@H](Cc2ccc(O)cc2)NC(=O)[C@@H]2CSSC[C@H](NC(=O)[C@H](C(C)C)NC(=O)[C@H](CCCNC(=N)N)NC1=O)C(=O)N[C@@H](Cc1ccc(O)cc1)C(=O)N[C@@H](CCCNC(=N)N)C(=O)NCC(=O)N[C@@H](C(C)C)C(=O)N2 [CT7] (H-RVCIRVCYRGVCYRRCW-OH; disulfide 3-16, 7-12), the “Minimum Inhibitory Concentration” value (E. coli ML-35p [1]) was 0.5 µM, the “Geometric mean (GM) of the peptide MICs” value (Gram-positive bacteria) was 2 µM and the “Geometric mean (GM) of the peptide MICs” value (Gram-negative bacteria) was 0.55 µM. The “Minimum Inhibitory Concentration” value [2] was 2 µM, the “Minimum Inhibitory Concentration” value [3] was 1 µM and the “Minimum Inhibitory Concentration” value (E. coli CI 214) was 0.25 µM. The “Minimum Inhibitory Concentration” value (E. coli ATTC 25922) was 0.25 µM, the “Minimum Inhibitory Concentration” value (Bacillus subtilis B-886) was 4 µM and the “Minimum Inhibitory Concentration” value (K. pneumonia ATCC 700603) was 4 µM. The “Minimum Inhibitory Concentration” value (A. baumanii CI 2675) was 0.125 µM, the “Minimum Inhibitory Concentration” value (P. aeruginosa PAO1) was 1 µM and the “Minimum Inhibitory Concentration” value (E. cloacae CI 4172) was 2 µM. The “Minimum Inhibitory Concentration” value (E. coli CI 3600) was 0.25 µM and the “maximum level of lysis (hemolysis)” value (human red blood cells; 128 μM peptide, 1.5 h incubation, PBS, 37 °C, absorbance 405 nm, Triton X-100 = 100%) was about 50%.

For CC[C@H](C)[C@@H]1NC(=O)[C@@H](NC(=O)[C@@H](NC(=O)[C@H](CCCNC(=N)N)NC(=O)[C@@H]2CCCN2C(=O)[C@@H](N)CO)C(C)C)CSSC[C@@H](C(=O)N[C@@H](Cc2c[nH]c3ccccc23)C(=O)NCC(=O)O)NC(=O)[C@H](CCCNC(=N)N)NC(=O)[C@H](CCCNC(=N)N)NC(=O)[C@H](Cc2ccc(O)cc2)NC(=O)[C@@H]2CSSC[C@H](NC(=O)[C@H](C(C)C)NC(=O)[C@H](CCCNC(=N)N)NC1=O)C(=O)N[C@@H](CCCNC(=N)N)C(=O)N[C@@H](CC(N)=O)C(=O)NCC(=O)N[C@@H](C(C)C)C(=O)N2 [Cap, capitellacin], the “Geometric mean (GM) of the peptide MICs” value (Gram-positive bacteria) was 8 µM, the “Geometric mean (GM) of the peptide MICs” value (Gram-negative bacteria) was 1 µM and the “hemolytic effect after 24 h exposure” value (human red blood cells; 128 µM, 24 h) was 50%. For the same compound, the “concentration above which toxic effect was observed after 24 h” value (human red blood cells; 24 h, 32 µM = 64× MIC) was “above 32 µM”.

For arenicin-1, the “membrane permeabilization after 60 min” value (E. coli ML-35p [4]) is listed as “almost full membrane permeabilization”.

With polymyxin B the “Initial MIC value” (E. coli MDR CI 1057; E. coli MDR CI 1057, Mueller–Hinton medium containing added NaCl, before passages) was 0.125 µM and the “increase in MIC value after 9 passages” value (E. coli MDR CI 1057; E. coli MDR CI 1057, after just 9 passages) was 64 fold.

For protegrin-1, the “membrane permeabilization after 60 min” value (E. coli ML-35p [4]) is given as “almost full membrane permeabilization”.
